Reference: ChEMBL document CHEMBL4346735, “Discovery and pharmacological evaluation of indole derivatives as potent and selective RORγt inverse agonist for multiple autoimmune conditions” (Bioorg Med Chem Lett, 2019)
pIC50: −log10 of the molar value. The source made the active and inactive calls. No cut-off for these calls is given here.

How the values were obtained:
[1] = molecular target: T1, Nuclear receptor ROR-gamma (Homo sapiens, UniProt P51449); assay: Inverse agonist activity at GST-tagged RORgammat LBD (unknown origin) using fluorescein-D22 co-activator peptide as substrate incubated for 1 hr by TR-FRET assay
T1 sequence (P51449 whole entry): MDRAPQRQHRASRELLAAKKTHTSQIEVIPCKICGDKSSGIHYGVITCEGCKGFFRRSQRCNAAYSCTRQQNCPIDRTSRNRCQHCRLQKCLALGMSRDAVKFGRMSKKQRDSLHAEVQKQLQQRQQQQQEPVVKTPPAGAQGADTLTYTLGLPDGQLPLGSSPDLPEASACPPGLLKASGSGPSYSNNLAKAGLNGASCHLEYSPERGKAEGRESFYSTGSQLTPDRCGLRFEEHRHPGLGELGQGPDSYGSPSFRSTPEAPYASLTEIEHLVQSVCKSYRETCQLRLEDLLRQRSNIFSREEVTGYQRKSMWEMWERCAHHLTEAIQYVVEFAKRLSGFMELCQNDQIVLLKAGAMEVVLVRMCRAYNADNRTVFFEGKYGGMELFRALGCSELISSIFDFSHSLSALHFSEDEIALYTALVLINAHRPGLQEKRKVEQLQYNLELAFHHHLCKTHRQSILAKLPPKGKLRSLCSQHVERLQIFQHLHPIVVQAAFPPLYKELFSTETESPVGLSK

[2] = molecular target: T1, Nuclear receptor ROR-gamma; assay: Transactivation of recombinant GAL4-DBD fused RORgammat LBD (unknown origin) expressed in HEK293T cells incubated for 18 to 24 hrs by dual-Glo luciferase assay; assay type: cell-based
[3] = Drug metabolism in mouse liver microsomes assessed as oxidation metabolic rate at 1 uM preincubated for 5 mins followed by NADPH addition after 30 mins by LC-MS/MS analysis; assay type: ADME, Microsome; details: 0.5 h
[4] = Drug metabolism in rat liver microsomes assessed as oxidation metabolic rate at 1 uM preincubated for 5 mins followed by NADPH addition after 30 mins by LC-MS/MS analysis; assay type: ADME, Microsome; details: 0.5 h
[5] = Drug metabolism in human pooled liver microsomes assessed as oxidation metabolic rate at 1 uM preincubated for 5 mins followed by NADPH addition after 30 mins by LC-MS/MS analysis; assay type: ADME, Microsome; details: 0.5 h
[6] = AUC (0 to t) in Balb/c mouse at 3 mg/kg, iv administered as single dose by LC-MS/MS analysis; assay type: ADME, organism-based; details: in vivo
[7] = Clearance in Balb/c mouse at 3 mg/kg, iv administered as single dose by LC-MS/MS analysis; assay type: ADME, organism-based; details: in vivo
[8] = Half life in Balb/c mouse at 3 mg/kg, iv administered as single dose by LC-MS/MS analysis; assay type: ADME, organism-based; details: in vivo
[9] = Oral bioavailability in Balb/c mouse at 10 mg/kg administered via gavage by LC-MS/MS analysis; assay type: ADME, organism-based; details: in vivo
[10] = molecular target: T2, Nuclear receptor ROR-gamma (Mus musculus) (UniProt P51450); assay: Transrepression of RORgammat in Balb/c mouse splenocytes assessed as inhibition of anti-CD3/anti-CD28 stimulated IL-17 gene expression at 0.3 uM measured after 24 hrs in presence of anti-CD3/anti-CD28; assay type: cell-based
T2 sequence (whole entry): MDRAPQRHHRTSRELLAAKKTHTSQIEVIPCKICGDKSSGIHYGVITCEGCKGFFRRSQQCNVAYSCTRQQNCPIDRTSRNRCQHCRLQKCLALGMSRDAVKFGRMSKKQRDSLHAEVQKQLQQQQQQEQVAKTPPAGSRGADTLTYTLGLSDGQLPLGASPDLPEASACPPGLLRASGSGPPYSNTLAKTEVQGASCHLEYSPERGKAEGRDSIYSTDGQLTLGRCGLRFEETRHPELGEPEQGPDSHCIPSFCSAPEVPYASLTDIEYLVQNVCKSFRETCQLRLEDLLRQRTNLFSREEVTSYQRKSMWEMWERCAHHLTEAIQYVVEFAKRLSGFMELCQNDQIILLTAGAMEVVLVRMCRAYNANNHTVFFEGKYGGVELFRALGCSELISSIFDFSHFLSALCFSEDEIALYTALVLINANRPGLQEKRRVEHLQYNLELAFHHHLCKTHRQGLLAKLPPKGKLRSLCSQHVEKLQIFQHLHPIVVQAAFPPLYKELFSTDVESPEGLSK

[11] = molecular target: T2, Nuclear receptor ROR-gamma (Mus musculus); assay: Transrepression of RORgammat in Balb/c mouse splenocytes assessed as inhibition of anti-CD3/anti-CD28 stimulated IL-17 gene expression at 3 uM measured after 24 hrs in presence of anti-CD3/anti-CD28; assay type: cell-based
[12] = molecular target: T2, Nuclear receptor ROR-gamma (Mus musculus); assay: Transrepression of RORgammat in Balb/c mouse splenocytes assessed as inhibition of anti-CD3/anti-CD28 stimulated IL-17 gene expression at 30 uM measured after 24 hrs in presence of anti-CD3/anti-CD28; assay type: cell-based
[13] = molecular target: T3, Nuclear receptor ROR-gamma (Mus musculus, UniProt P51450); assay: Inverse agonist activity at RORgammat in mouse splenocytes derived naive T cells assessed as suppression of T cell differentiation to Th17 cells by measuring IL-17 secretion in presence of […]/anti-IFNgamma/TGFbeta/IL-6 for 6 days by ELISA; assay type: cell-based
T3 sequence (P51450 whole entry): T2 sequence (whole entry)

Mus musculus [14] = assay: Inhibition of anti-CD3-induced IL-17A level in Balb/c mouse plasma at 5 mg/kg, po treated prior to stimulation with anti-CD3 for 3 hrs relative to control; assay type: functional
Mus musculus [15] = assay: Immunosuppressive activity in MOG (35 to 55 residues)/pertussis toxin-induced experimental allergic encephalomyelitis C57BL/6J mouse model assessed as reduction in disease severity score at 15 mg/kg, po bid measured at day 23 relative to dexamethasone; assay type: functional; details: 552 h
Mus musculus [16] = assay: Immunosuppressive activity in MOG (35 to 55 residues)/pertussis toxin-induced experimental allergic encephalomyelitis C57BL/6J mouse model assessed as decrease in ratio of Th17:Th1 at 3 to 30 mg/kg, po bid by intracellular staining method; assay type: functional, organism-based
Mus musculus [17] = species: Mus musculus; assay: Effect on non-RORgammat-dependent IFNG gene expression in BALB/c mouse splenocytes measured after 24 hrs in presence of anti-CD3/anti-CD28; assay type: functional
Mus musculus [18] = species: Mus musculus; assay: Effect on non-RORgammat-dependent ll4 gene expression in BALB/c mouse splenocytes measured after 24 hrs in presence of anti-CD3/anti-CD28; assay type: functional
Mus musculus [19] = species: Mus musculus; assay: Effect on non-RORgammat-dependent TNFA gene expression in BALB/c mouse splenocytes measured after 24 hrs in presence of anti-CD3/anti-CD28; assay type: functional
Mus musculus [20] = species: Mus musculus; assay: Effect on non-RORgammat-dependent il6 gene expression in BALB/c mouse splenocytes measured after 24 hrs in presence of anti-CD3/anti-CD28; assay type: functional
Mus musculus [21] = assay: Immunosuppressive activity in MOG (35 to 55 residues)/pertussis toxin-induced experimental allergic encephalomyelitis C57BL/6J mouse model assessed as delay in disease onset at 3 to 30 mg/kg, po bid; assay type: functional, organism-based
Mus musculus [22] = assay: Immunosuppressive activity in MOG (35 to 55 residues)/pertussis toxin-induced experimental allergic encephalomyelitis C57BL/6J mouse model assessed as reduction in disease severity at 3 to 30 mg/kg, po bid measured at days 15-19; assay type: functional, organism-based
Mus musculus [23] = assay: Immunosuppressive activity in MOG (35 to 55 residues)/pertussis toxin-induced experimental allergic encephalomyelitis C57BL/6J mouse model assessed as IFN-gamma production of CNS infiltrating CD4+ Th1 cells at 3 to 30 mg/kg, po bid by intracellular staining method; assay type: functional, organism-based

Compound: O=C(O)c1ccc(-c2nn(C(=O)c3c(Cl)cccc3Cl)c3ccccc23)cc1
- pIC50 [1]: 8.70
- pIC50 [2]: 7.70
- Drug metabolism [3]: < 0.04 nmol/min/mg
- Drug metabolism [4]: 0.19 nmol/min/mg
- Drug metabolism [5]: 0.04 nmol/min/mg
- AUC(0-t) [6]: 13.2 µM·h
- clearance [7]: 12.9 mL/min/kg
- half-life [8]: 1.12 h
- bioavailability [9]: 42%
- inhibition [10]: 15%
- inhibition [11]: 48%
- inhibition [12]: 52%
- pIC50 [13]: 7.37

Compound: C[C@@H]1C[C@H]2[C@@H]3CCC4=CC(=O)C=C[C@]4(C)[C@@]3(F)[C@@H](O)C[C@]2(C)[C@@]1(O)C(=O)CO [DEXAMETHASONE]
- inhibition in vivo at 5 mg/kg (Mus musculus [14]): 51%

Compound: C[S+](C)[O-] [DIMETHYL SULFOXIDE]
- inhibition in vivo at 15 mg/kg (Mus musculus [15]): 15%

Compound: O=C(O)c1ccc(-n2cc(C(=O)c3c(Cl)cccc3Cl)c3cccc(F)c32)cc1
- inhibition [10]: 2%
- inhibition [11]: 52%
- inhibition [12]: 76%
- inhibition (Mus musculus [16]): Active
- Activity (Mus musculus [17]): inactive
- Activity (Mus musculus [18]): inactive
- Activity (Mus musculus [19]): inactive
- Activity (Mus musculus [20]): inactive
- Activity (Mus musculus [21]): Active
- Activity (Mus musculus [22]): Active
- Activity (Mus musculus [23]): Active
